Laboratory results published in patent publication EP4095134A1, “POLYCYCLIC COMPOUNDS FOR THE TREATMENT OF NEUROLOGICAL INDICATIONS” (UCL Business Ltd, priority 2021, dated 2022).

Biological target: T1, P2Y1 receptor (Homo sapiens, UniProt P47900)
T1 construct: expressed in transfected cells
Experiment: P2Y1 IP1 accumulation HTRF assay, antagonism of agonist MRS2365 in stably transfected cells
Format: cell-based
Conditions: for IC50: 5nM MRS2365, values rounded to nearest whole number
Procedure: IC50 values were determined using a cell based assay in stably transfected cells overexpressing the P2Y1 receptor. The assay system is a […] (HTRF) assay measuring accumulation of the intracellular messenger inositol monophosphate (IP1), generated intracellularly following activation of P2Y1. Activity of test compounds was generated by measuring antagonism of the increase in IP1 generated by addition of a selective P2Y1 agonist, MRS2365.
P2Y1 overexpressing cells were maintained in T175 flasks. The day before the assay, these cells were split and 20µl cell suspension transferred to each well of white 384-well assay plates at a cell density of 0.5x10^6 cells/mL. Plates were pulse centrifuged, then incubated overnight at 37°C / 5% CO2 prior to assay.
On day of assay, medium was removed from cells and replaced with stimulation buffer. Compounds were prepared in 100% DMSO for addition to cells using the Tecan D300e digital dispenser; compounds were prepared in cassette heads and added directly to wells in the required concentration range, to give a 10-point concentration response curve from 10µM with semi-log dilutions and a final DMSO concentration of 0.1%. Positive control antagonist curves with standard compounds were included on each plate. Plates were incubated with antagonists for 1 hour prior to addition of 5nM of the agonist MRS2365, dispensed using a Bravo liquid handler. Following agonist addition, plates were incubated for 60 minutes prior to assay. Both incubations were carried out at 37°C / 5% CO2.
For the assay, IP1 accumulation was quantified using the IPOne kit according to manufacturer's instructions. In short, a standard curve was prepared for IP 1 quantification, and cells lysed using kit lysis buffer. Assay reagents were added to the lysates, and incubated for 1 hour at room temperature without spinning or shaking. Plates were analysed on a BMG Pherastar plate reader, and IP1 signal generated in cells interpolated from the standard curve.
For all reported results, N is greater than or equal to 4. An individual N refers to one assay run with a single weighing of compound. A minimum of two assay runs were performed for each of two independent weighings of compound. Results (racemic)

T1 sequence (P47900 whole entry): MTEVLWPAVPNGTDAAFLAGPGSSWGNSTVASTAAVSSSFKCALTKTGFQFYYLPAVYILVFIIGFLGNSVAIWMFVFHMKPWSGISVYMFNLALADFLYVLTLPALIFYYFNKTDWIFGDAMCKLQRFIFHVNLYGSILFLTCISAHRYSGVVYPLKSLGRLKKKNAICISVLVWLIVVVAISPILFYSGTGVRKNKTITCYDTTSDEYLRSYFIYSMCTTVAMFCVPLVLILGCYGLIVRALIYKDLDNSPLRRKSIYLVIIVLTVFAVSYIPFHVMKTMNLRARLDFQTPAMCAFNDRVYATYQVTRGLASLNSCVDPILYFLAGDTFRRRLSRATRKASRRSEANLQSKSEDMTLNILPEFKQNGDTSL

| IC50 (racemic, N >= 4) | Structure (SMILES) | further results |
| --- | --- | --- |
| – | CN1CC[C@@]1(c1ccccc1Oc1ncccc1NC(=O)Nc1ccc(OC(F)(F)F)cc1)C(F)(F)F [S115] | IC50 (single enantiomer): 39 nM |
| – | COc1ccc2nc(Nc3cccnc3Oc3ccc(F)cc3C3(C(F)(F)F)CCO3)[nH]c2n1 (racemic) [S96] | inhibition at 10 µM (at maximum tested concentration of 10000 nM, full dose-response curve not generated): 56% |
| 4940 nM | O=C(Nc1nc2ccccc2[nH]1)Nc1cccnc1Oc1ccccc1C1(C(F)(F)F)CCO1 (racemic) [S84, 1-(1H-benzo[d]imidazol-2-yl)-3-(2-(2-(2-(trifluoromethyl)oxetan-2-yl)phenoxy)pyridin-3-yl)urea] | – |
| 36 nM | CC1(c2ccccc2Oc2ncccc2NC(=O)Nc2ccc(OC(F)(F)F)cc2)CCC1 (racemic) [S95] | – |
| 844 nM | Cc1ccc(NC(=O)NC2CC3(CCC3)C2)c(Oc2ccc(F)cc2C2(C(F)(F)F)CCO2)n1 (racemic) [S63, 1-(2-(4-fluoro-2-(2-(trifluoromethyl)oxetan-2-yl)phenoxy)-6-methylpyridin-3-yl)-3-(spiro[3.3]heptan-2-yl)urea] | – |
| 4590 nM | O=C(Nc1ccc(OC(F)(F)F)cc1)Nc1cccnc1Oc1ccccc1C1COC1 (racemic) [S87] | – |
| 1450 nM | O=C(Nc1ccc2c(c1)OCO2)Nc1cccnc1Oc1ccccc1C1(C(F)(F)F)CCO1 (racemic) [S70, 1-(benzo[d][1,3]dioxol-5-yl)-3-(2-(2-(2-(trifluoromethyl)oxetan-2-yl)phenoxy)pyridin-3-yl)urea] | – |
| 87 nM | O=C(Nc1ccc(OC(F)(F)F)cc1F)Nc1cccnc1Oc1cc(F)ccc1C1(C(F)(F)F)CCO1 (racemic) [S12] | – |
| 735 nM | O=C(Nc1ccccc1)Nc1cccnc1Oc1ccccc1C1(C(F)(F)F)CCO1 (racemic) [S60, 1-phenyl-3-(2-(2-(2-(trifluoromethyl)oxetan-2-yl)phenoxy)pyridin-3-yl)urea] | – |
| 807 nM | O=C(Nc1ccc(CN2CC(F)(F)C2)cc1)Nc1cccnc1Oc1ccccc1C1(C(F)(F)F)CCO1 (racemic) [S62, 1-(4-((3,3-difluoroazetidin-1-yl)methyl)phenyl)-3-(2-(2-(2-(trifluoromethyl)oxetan-2-yl)phenoxy)pyridin-3-yl)urea] | – |
| – | O=C(Nc1ccc(OC(F)(F)F)cc1F)Nc1cccnc1Oc1ccccc1[C@]1(C(F)(F)F)CCO1 [S107] | IC50 (single enantiomer): 113 nM |
| 392 nM | COc1ccc(F)c(NC(=O)Nc2cccnc2Oc2ccccc2C2(C(F)(F)F)CCO2)c1 (racemic) [S47, 1-(2-fluoro-5-methoxyphenyl)-3-(2-(2-(2-(trifluoromethyl)oxetan-2-yl)phenoxy)pyridin-3-yl)urea] | – |
| 168 nM | O=C(Nc1ccc(OC(F)(F)F)cc1)Nc1cccnc1Oc1cc(F)ccc1C1(C(F)(F)F)CCO1 (racemic) [S31] | – |
| 93 nM | O=C(Nc1ccc(S(F)(F)(F)(F)F)cc1F)Nc1cccnc1Oc1ccccc1C1(C(F)(F)F)CCO1 (racemic) [S13, 1-(2-fluoro-4-(pentafluoro-λ^6-sulfaneyl)phenyl)-3-(2-(2-(2-(trifluoromethyl)oxetan-2-yl)phenoxy)pyridin-3-yl)urea] | – |
| 3140 nM | COc1cc(NC(=O)Nc2ccc(C)nc2Oc2ccc(F)cc2C2(C(F)(F)F)CCO2)ccn1 (racemic) [S77, 1-(2-(4-fluoro-2-(2-(trifluoromethyl)oxetan-2-yl)phenoxy)-6-methylpyridin-3-yl)-3-(2-methoxypyridin-4-yl)urea] | – |
| 43 nM | CCN1CCC1(c1ccccc1Oc1ncccc1NC(=O)Nc1ccc(OC(F)(F)F)cc1)C(F)(F)F (racemic) [S5] | – |
| 55 nM | Cc1ccc(NC(=O)Nc2ccc(OC(F)(F)F)cc2)c(Oc2ccccc2C2(C(F)(F)F)CCO2)n1 (racemic) [S7, 1-(6-methyl-2-(2-(2-(trifluoromethyl)oxetan-2-yl)phenoxy)pyridin-3-yl)-3-(4-(trifluoromethoxy)phenyl)urea] | – |

| IC50 (racemic, N >= 4) | Structure (SMILES) | further results |
| --- | --- | --- |
| 419 nM | O=C(Nc1cccc(OC(F)(F)F)c1)Nc1cccnc1Oc1ccc(F)cc1C1(C(F)(F)F)CCO1 (racemic) [S49, 1-(2-(4-fluoro-2-(2-(trifluoromethyl)oxetan-2-yl)phenoxy)pyridin-3-yl)-3-(3-(trifluoromethoxy)phenyl)urea] | – |
| 465 nM | O=C(Nc1ccc(OC(F)(F)F)cn1)Nc1cccnc1Oc1ccccc1C1(C(F)(F)F)CCO1 (racemic) [S50, 1-(5-(trifluoromethoxy)pyridin-2-yl)-3-(2-(2-(2-(trifluoromethyl)oxetan-2-yl)phenoxy)pyridin-3-yl)urea] | – |
| 408 nM | Cc1ccc(NC(=O)Nc2ccc(F)cc2)c(Oc2ccc(F)cc2C2(C(F)(F)F)CCO2)n1 (racemic) [S48, 1-(2-(4-fluoro-2-(2-(trifluoromethyl)oxetan-2-yl)phenoxy)-6-methylpyridin-3-yl)-3-(4-fluorophenyl)urea] | – |
| 146 nM | O=C(Nc1ccc(C(F)(F)F)cc1)Nc1cccnc1Oc1ccccc1C1(C(F)(F)F)CCO1 (racemic) [S25, 1-(2-(2-(2-(trifluoromethyl)oxetan-2-yl)phenoxy)pyridin-3-yl)-3-(4-(trifluoromethyl)phenyl)urea] | – |
| 1020 nM | Cc1ccc(NC(=O)Nc2ccc(C#N)cc2)c(Oc2ccc(F)cc2C2(C(F)(F)F)CCO2)n1 (racemic) [S66, 1-(4-cyanophenyl)-3-(2-(4-fluoro-2-(2-(trifluoromethyl)oxetan-2-yl)phenoxy)-6-methylpyridin-3-yl)urea] | – |
| 644 nM | Cc1ncc(NC(=O)Nc2ccc(OC(F)(F)F)cc2)c(Oc2ccccc2C2(C(F)(F)F)CCO2)n1 (racemic) [S59, 1-(2-methyl-4-(2-(2-(trifluoromethyl)oxetan-2-yl)phenoxy)pyrimidin-5-yl)-3-(4-(trifluoromethoxy)phenyl)urea] | – |
| 639 nM | Cc1ncc(NC(=O)Nc2ccc(Cl)cc2F)c(Oc2ccccc2C2(C(F)(F)F)CCO2)n1 (racemic) [S58] | – |
| 324 nM | Cc1ccc(NC(=O)Nc2ccccc2)c(Oc2ccc(F)cc2C2(C(F)(F)F)CCO2)n1 (racemic) [S42, 1-(2-(4-fluoro-2-(2-(trifluoromethyl)oxetan-2-yl)phenoxy)-6-methylpyridin-3-yl)-3-phenylurea] | – |
| – | Cc1ccc(NC(=O)Nc2ccc(C(C)(C)C(F)(F)F)cc2)c(Oc2ccccc2[C@@]2(C(F)(F)F)CCO2)n1 (single isomer, unassigned) [S99] | IC50 (single enantiomer): 29 nM |
| 145 nM | O=C(Nc1ccc(OC(F)(F)F)c(F)c1)Nc1cccnc1Oc1ccccc1C1(C(F)(F)F)CCO1 (racemic) [S23, 1-(3-fluoro-4-(trifluoromethoxy)phenyl)-3-(2-(2-(2-(trifluoromethyl)oxetan-2-yl)phenoxy)pyridin-3-yl)urea] | – |
| – | CN1CC[C@]1(c1ccccc1Oc1ncccc1NC(=O)Nc1ccc(OC(F)(F)F)cc1F)C(F)(F)F (single isomer, unassigned) [S102] | IC50 (single enantiomer): 52 nM |
| 560 nM | COc1ccc(NC(=O)Nc2cccnc2Oc2ccccc2C2(C(F)(F)F)CCO2)cc1F (racemic) [S55, 1-(3-fluoro-4-methoxyphenyl)-3-(2-(2-(2-(trifluoromethyl)oxetan-2-yl)phenoxy)pyridin-3-yl)urea] | – |
| 66 nM | O=C(Nc1ccc(OC(F)(F)F)cc1F)Nc1cccnc1Oc1ccccc1C1(C(F)(F)F)CCO1 (racemic) [S9, 1-(2-fluoro-4-(trifluoromethoxy)phenyl)-3-(2-(2-(2-(trifluoromethyl)oxetan-2-yl)phenoxy)pyridin-3-yl)urea] | – |
| 589 nM | COc1ccc(F)c(NC(=O)Nc2cccnc2Oc2ccc(F)cc2C2(C(F)(F)F)CCO2)c1 (racemic) [S57, 1-(2-(4-fluoro-2-(2-(trifluoromethyl)oxetan-2-yl)phenoxy)pyridin-3-yl)-3-(2-fluoro-5-methoxyphenyl)urea] | – |
| – | O=C(Nc1cc(F)c(Cl)cc1F)Nc1cccnc1Oc1ccccc1[C@@]1(C(F)(F)F)CCO1 (single isomer, unassigned) [S100] | IC50 (single enantiomer): 44 nM |
| 248 nM | O=C(Nc1ccc(C(F)(F)F)cn1)Nc1cccnc1Oc1ccccc1C1(C(F)(F)F)CCO1 (racemic) [S38, 1-(2-(2-(2-(trifluoromethyl)oxetan-2-yl)phenoxy)pyridin-3-yl)-3-(5-(trifluoromethyl)pyridin-2-yl)urea] | – |
| 145 nM | O=C(Nc1ccc(Cl)cc1)Nc1ccc(Cl)nc1Oc1ccccc1C1(C(F)(F)F)CCO1 (racemic) [S24, 1-(6-chloro-2-(2-(2-(trifluoromethyl)oxetan-2-yl)phenoxy)pyridin-3-yl)-3-(4-chlorophenyl)urea] | – |

| Structure (SMILES) | IC50 (racemic, N >= 4) | further results |
| --- | --- | --- |
| Cc1ncc(NC(=O)Nc2ccc(OC(F)(F)F)cc2F)c(Oc2ccccc2C2(C(F)(F)F)CCO2)n1 (racemic) [S45] | 382 nM | – |
| Cc1ccc(Nc2nnc(C(F)F)s2)c(Oc2ccc(F)cc2C2(C(F)(F)F)CCO2)n1 (racemic) [S76] | 3050 nM | – |
| Cc1ncc(NC(=O)Nc2ccc(OC3CC(F)(F)C3)cc2)c(Oc2ccccc2C2(C(F)(F)F)CCO2)n1 (racemic) [S81, 1-(4-(3,3-difluorocyclobutoxy)phenyl)-3-(2-methyl-4-(2-(2-(trifluoromethyl)oxetan-2-yl)phenoxy)pyrimidin-5-yl)urea] | 3530 nM | – |
